Assay results from ChEMBL document CHEMBL1141419, “N-(5-Fluoro-2-phenoxyphenyl)-N-(2-[(131)I]iodo-5-me thoxybenzyl)acetamide: a potent iodinated radioligand for the peripheral-type benzodiazepine receptor in brain” (J Med Chem, 2007).

Assays:
Rattus norvegicus = organism: Rattus norvegicus; assay: Displacement of [11C]flumazenil from CBR in Sprague-Dawley rat brain
Translocator protein [1] = target: T1, Translocator protein (Rattus norvegicus, UniProt P16257); assay: Displacement of [11C]DAA1106 from PBR in Sprague-Dawley rat brain; assay type: tissue-based
[2] = Distribution coefficient, log D at pH 7.4 by shake flask method; assay type: physicochemical; details: octanol/water
Translocator protein [3] = target: T1, Translocator protein; assay: Displacement of [11C]PK-11195 from PBR in Sprague-Dawley rat brain; assay type: tissue-based
[4] = Stability in iv dosed ddy mouse brain after 30 min; assay type: ADME, organism-based; details: read-out: Stability
[5] = Ratio of drug level in olfactory bulb against striatum in Sprague-Dawley rat after 30 mins; assay type: ADME, tissue-based; details: in vivo, 0.5 h
[6] = Ratio of drug level in choroids plexus against striatum in Sprague-Dawley rat after 30 mins; assay type: ADME, tissue-based; details: in vivo, 0.5 h

T1 sequence (P16257 whole entry, looked up): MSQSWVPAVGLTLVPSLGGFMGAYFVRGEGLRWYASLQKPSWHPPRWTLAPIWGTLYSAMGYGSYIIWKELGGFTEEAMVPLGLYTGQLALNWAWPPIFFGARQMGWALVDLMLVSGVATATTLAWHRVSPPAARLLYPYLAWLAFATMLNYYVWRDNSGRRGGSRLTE

SMILES | IC50 (Rattus norvegicus) [µM] | IC50 (Translocator protein [1]) [nM] | logD [2] | IC50 (Translocator protein [3]) [nM] | remaining at 0.5 h [4] [%] | Ratio [5] | Ratio [6]
COc1ccc(OC)c(CN(C(C)=O)c2cc(F)ccc2Oc2ccccc2)c1 | > 10 |  |  | 1.3 |  |  | 
CCC(C)N(C)C(=O)c1cc2ccccc2c(-c2ccccc2Cl)n1 (centres undefined) | > 10 |  |  |  |  |  | 
COc1ccc([131I])c(CN(C(C)=O)c2cc(F)ccc2Oc2ccccc2)c1 |  |  |  |  | 90 | 1.5 | 3.2

Now from value to compound:

IC50 (Rattus norvegicus) [µM] | IC50 (Translocator protein [1]) [nM] | logD [2] | IC50 (Translocator protein [3]) [nM] | remaining at 0.5 h [4] [%] | Ratio [5] | Ratio [6] | SMILES
> 10 | 69.2 | 4.03 | 60.1 |  |  |  | COc1ccc(OC)c(CN(C(C)=O)c2cc(I)ccc2Oc2ccccc2)c1
> 10 | 7.8 | 4.42 | 4.4 |  |  |  | COc1ccc(I)c(CN(C(C)=O)c2cc(F)ccc2Oc2ccccc2)c1
